Laboratory results reported in patent publication US9765091B2, “Tetrahydropyrazolo [3,4-b] azepine derivatives and their use as allosteric modulators of metabotropic glutamate receptors” (Addex Pharma S.A., priority 2010, dated 2017).

Target: T1, human mGluR4 (Homo sapiens, UniProt Q14833)
T1 construct: expressed in transfected cells
Test: Fluorescent cell based Ca2+ mobilization assay (FLIPR) on HEK-293 cells expressing human mGluR4
Details: positive allosteric modulation, HEK-293 cells expressing hmGluR4, stimulated by EC25 glutamate; mean of at least three independent experiments in duplicate; read-out: Ca^2+ Flux* (mean EC50)
Source text: mGluR4 Assay on HEK-Expressing Human mGluR4
The compounds of the present invention are positive allosteric modulators of mGluR4 receptor. Their activity was examined on recombinant human mGluR4a receptors by detecting changes in intracellular Ca^2+ concentration, using the fluorescent Ca^2+-sensitive dye Fluo4-(AM) and a Fluorometric Imaging Plate Reader (FLIPR, Molecular Devices, Sunnyvale, Calif.).
The cDNA encoding the human metabotropic glutamate receptor (hmGluR4), (accession number NM_000841.1, NCBI Nucleotide database browser), was subcloned into an expression vector containing also the hygromycin resistance gene. In parallel, the cDNA encoding a G protein allowing redirection of the activation signal to intracellular calcium flux was subcloned into a different expression vector containing also the puromycin resistance gene. Transfection of both these vectors into HEK293 cells with PolyFect reagent (Qiagen) according to supplier's protocol, and hygromycin and puromycin treatment allowed selection of antibiotic resistant cells which had integrated stably one or more copies of the plasmids. Positive cellular clones expressing hmGluR4 were identified in a functional assay measuring changes in calcium fluxes in response to glutamate or selective known mGluR4 orthosteric agonists and antagonists. HEK-293 cells expressing hmGluR4 were maintained in media containing DMEM, dialyzed Fetal Calf Serum (10%), Glutamax™ (2 mM), Penicillin (100 units/mL), Streptomycin (100 μg/mL), Geneticin (100 μg/mL) and Hygromycin-B (40 μg/mL) and puromycin (1 μg/mL) at 37° C./5% CO2.
Human mGluR4 HEK-293 cells were plated out 24 hours prior to FLIPR^384 assay in black-walled, clear-bottomed, poly-L-ornithine-coated 384-well plates at a density of 25,000 cells/well in a glutamine/glutamate free DMEM medium containing foetal bovine serum (10%), penicillin (100 units/mL) and streptomycin (100 μg/mL) at 37° C./5% CO2.
On the day of the assay, the medium was aspirated and the cells were loaded with a 3 μM solution of Fluo4-AM (LuBioScience, Lucerne, Switzerland) in 0.03% pluronic acid. After 1 hour at 37° C./5% CO2, the non incorporated dye was removed by washing cell plate with the assay buffer and the cells were left in the dark at room temperature for […] before testing. All assays were performed in a pH 7.4 buffered-solution containing 20 mM HEPES, 143 mM NaCl, 6 mM KCl, 1 mM MgSO4, 1 mM CaCl2, 0.125 mM sulfapyrazone and 0.1% glucose.
After 10 s of basal fluorescence recording, various concentrations of the compounds of the invention were added to the cells. Changes in fluorescence levels were first monitored for 180 s in order to detect any agonist activity of the compounds. Then the cells were stimulated by an EC25 glutamate concentration for an additional 110 s in order to measure enhancing activities of the compounds of the invention. EC25 glutamate concentration is the concentration giving 25% of the maximal glutamate response.
The concentration-response curves of representative compounds of the present invention were generated using the Prism GraphPad software (Graph Pad Inc, San Diego, USA). The curves were fitted to a four-parameter logistic equation: (Y=Bottom+(Top−Bottom)/(1+10^((Log EC50−X)*Hill Slope) allowing the determination of EC50 values.
The Table 4 below represents the mean EC50 obtained from at least three independent experiments of selected molecules performed in duplicate.

T1 sequence (Q14833 33-912): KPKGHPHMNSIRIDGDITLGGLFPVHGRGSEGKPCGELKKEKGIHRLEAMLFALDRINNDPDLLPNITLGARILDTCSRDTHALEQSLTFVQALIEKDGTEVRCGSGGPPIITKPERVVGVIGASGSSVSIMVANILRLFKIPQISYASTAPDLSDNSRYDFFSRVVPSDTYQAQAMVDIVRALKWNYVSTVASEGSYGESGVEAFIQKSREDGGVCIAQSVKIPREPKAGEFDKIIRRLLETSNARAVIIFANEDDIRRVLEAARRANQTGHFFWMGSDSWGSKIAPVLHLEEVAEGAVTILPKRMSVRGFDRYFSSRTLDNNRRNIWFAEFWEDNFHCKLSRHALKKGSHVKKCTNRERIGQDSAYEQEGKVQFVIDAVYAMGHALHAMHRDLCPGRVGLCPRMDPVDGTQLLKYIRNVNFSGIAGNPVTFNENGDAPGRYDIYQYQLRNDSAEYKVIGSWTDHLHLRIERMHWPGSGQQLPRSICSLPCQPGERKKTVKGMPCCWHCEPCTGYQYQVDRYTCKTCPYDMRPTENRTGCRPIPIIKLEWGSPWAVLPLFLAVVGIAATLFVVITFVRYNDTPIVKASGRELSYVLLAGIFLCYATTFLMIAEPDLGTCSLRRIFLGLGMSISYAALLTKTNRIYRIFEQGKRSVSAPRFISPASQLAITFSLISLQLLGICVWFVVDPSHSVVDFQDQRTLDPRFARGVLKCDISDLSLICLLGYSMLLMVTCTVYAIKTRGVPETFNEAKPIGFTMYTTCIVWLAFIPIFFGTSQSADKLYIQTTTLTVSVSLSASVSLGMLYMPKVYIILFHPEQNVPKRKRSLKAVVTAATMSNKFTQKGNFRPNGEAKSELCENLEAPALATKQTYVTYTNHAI

| Structure (SMILES) | EC50 |
| --- | --- |
| Fc1cnc(Nc2nc3c(s2)CCN(Cc2ccc(Cl)cn2)c2n[nH]cc2-3)nc1 [Compound 1-41, 6-((5-Chloropyridin-2-yl)methyl)-N-(5-fluoropyrimidin-2-yl)-4,5,6,8-tetrahydropyrazolo[3,4-b]thiazolo[4,5-d]azepin-2-amine] | < 100 nM |
| CC(C)c1cc(CN2CCc3nc(Nc4ncc(F)cn4)sc3-c3c[nH]nc32)no1 [Compound 1-42] | < 100 nM |
| CC(C)OCCN1CCc2sc(Nc3ncc(F)cn3)nc2-c2c[nH]nc21 [Compound 1-43, N-(5-Fluoropyrimidin-2-yl)-6-(2-isopropoxyethyl)-4,5,6,8-tetrahydropyrazolo[3,4-b]thiazolo[4,5-d]azepin-2-amine] | < 100 nM |
| Fc1cnc(Nc2nc3c(s2)CCN(CC2CCC2)c2n[nH]cc2-3)nc1 [Compound 1-44, 6-(Cyclobutylmethyl)-N-(5-fluoropyrimidin-2-yl)-4,5,6,8-tetrahydropyrazolo[3,4-b]thiazolo[4,5-d]azepin-2-amine] | < 100 nM |
| Fc1cnc(Nc2nc3c(s2)CCN(Cc2ccccc2)c2[nH]ncc2-3)nc1 [Compound 1-45, 6-Benzyl-N-(5-fluoropyrimidin-2-yl)-4,5,6,7-tetrahydropyrazolo[3,4-b]thiazolo[4,5-d]azepin-2-amine] | < 100 nM |
| Cc1cc(CN2CCc3sc(Nc4nccc(C)n4)nc3-c3c[nH]nc32)on1 [Compound 1-46, 6-((3-Methylisoxazol-5-yl)methyl)-N-(4-methylpyrimidin-2-yl)-4,5,6,8-tetrahydropyrazolo[3,4-b]thiazolo[4,5-d]azepin-2-amine] | < 100 nM |
| Fc1cnc(Nc2nc3c(s2)CCN(CC2CCCO2)c2[nH]ncc2-3)nc1 (stereo not shown) [Compound 1-48, N-(5-Fluoropyrimidin-2-yl)-6-((tetrahydrofuran-2-yl)methyl)-4,5,6,7-tetrahydropyrazolo[3,4-b]thiazolo[4,5-d]azepin-2-amine] | < 100 nM |
| Fc1cnc(Nc2nc3c(s2)CCN(Cc2ncccn2)c2[nH]ncc2-3)nc1 [Compound 1-49, N-(5-Fluoropyrimidin-2-yl)-6-(pyrimidin-2-ylmethyl)-4,5,6,7-tetrahydropyrazolo[3,4-b]thiazolo[4,5-d]azepin-2-amine] | < 100 nM |
| COCCN1CCc2sc(Nc3ncc(O)cn3)nc2-c2cn[nH]c21 [Compound 1-50, 2-(6-(2-Methoxyethyl)-4,5,6,7-tetrahydropyrazolo[3,4-b]thiazolo[4,5-d]azepin-2-ylamino)pyrimidin-5-ol] | < 100 nM |
| Fc1cnc(Nc2nc3c(s2)CCN(C[C@H]2CCCO2)c2[nH]ncc2-3)nc1 [Compound 1-51] | < 100 nM |
| Cn1ncc(CN2CCc3sc(Nc4ncc(F)cn4)nc3-c3cn[nH]c32)n1 [Compound 1-52, N-(5-Fluoropyrimidin-2-yl)-6-((2-methyl-2H-1,2,3-triazol-4-yl)methyl)-4,5,6,7-tetrahydropyrazolo[3,4-b]thiazolo[4,5-d]azepin-2-amine] | < 100 nM |
| COCCN1CCc2sc(Nc3cccc(CO)n3)nc2-c2c[nH]nc21 [Compound 1-53, (6-(6-(2-Methoxyethyl)-4,5,6,8-tetrahydropyrazolo[3,4-b]thiazolo[4,5-d]azepin-2-ylamino)pyridin-2-yl)methanol] | 1000 to 10000 nM |
| COCCN1CCc2sc(Nc3ccnc(C)n3)nc2-c2c[nH]nc21 [Compound 1-54, 6-(2-Methoxyethyl)-N-(2-methylpyrimidin-4-yl)-4,5,6,8-tetrahydropyrazolo[3,4-b]thiazolo[4,5-d]azepin-2-amine] | 1000 to 10000 nM |
| COCCN1CCc2sc(Nc3ccncn3)nc2-c2c[nH]nc21 [Compound 1-55, 6-(2-Methoxyethyl)-N-(pyrimidin-4-yl)-4,5,6,8-tetrahydropyrazolo[3,4-b]thiazolo[4,5-d]azepin-2-amine] | 1000 to 10000 nM |
| Fc1cnc(Nc2nc3c(s2)CCN(Cc2ccn[nH]2)c2n[nH]cc2-3)nc1 [Compound 1-56, 6-((1H-Pyrazol-5-yl)methyl)-N-(5-fluoropyrimidin-2-yl)-4,5,6,8-tetrahydropyrazolo[3,4-b]thiazolo[4,5-d]azepin-2-amine] | 100 to 1000 nM |
| Fc1cnc(Nc2nc3c(s2)CCN(Cc2[nH]ncc2Br)c2n[nH]cc2-3)nc1 [Compound 1-57, 6-((4-Bromo-1H-pyrazol-5-yl)methyl)-N-(5-fluoropyrimidin-2-yl)-4,5,6,8-tetrahydropyrazolo[3,4-b]thiazolo[4,5-d]azepin-2-amine] | 1000 to 10000 nM |
| Fc1cnc(Nc2nc3c(s2)CCN(Cc2ccc(Cl)cc2)c2[nH]ncc2-3)nc1 [Compound 1-58, 6-(4-Chlorobenzyl)-N-(5-fluoropyrimidin-2-yl)-4,5,6,7-tetrahydropyrazolo[3,4-b]thiazolo[4,5-d]azepin-2-amine] | 100 to 1000 nM |
| Cc1ccccc1CN1CCc2sc(Nc3ncc(F)cn3)nc2-c2cn[nH]c21 [Compound 1-59, N-(5-Fluoropyrimidin-2-yl)-6-(2-methylbenzyl)-4,5,6,7-tetrahydropyrazolo[3,4-b]thiazolo[4,5-d]azepin-2-amine] | 1000 to 10000 nM |
| COc1cccc(CN2CCc3sc(Nc4ncc(F)cn4)nc3-c3cn[nH]c32)c1 [Compound 1-60, N-(5-Fluoropyrimidin-2-yl)-6-(3-methoxybenzyl)-4,5,6,7-tetrahydropyrazolo[3,4-b]thiazolo[4,5-d]azepin-2-amine] | 100 to 1000 nM |
| Fc1ccc(CN2CCc3sc(Nc4ncc(F)cn4)nc3-c3cn[nH]c32)nc1 [Compound 1-61, 6-((5-Fluoropyridin-2-yl)methyl)-N-(5-fluoropyrimidin-2-yl)-4,5,6,7-tetrahydropyrazolo[3,4-b]thiazolo[4,5-d]azepin-2-amine] | < 100 nM |
| Fc1cnc(Nc2nc3c(s2)CCN(Cc2ccc(C(F)(F)F)cn2)c2[nH]ncc2-3)nc1 [Compound 1-62, N-(5-Fluoropyrimidin-2-yl)-6-((5-(trifluoromethyl)pyridin-2-yl)methyl)-4,5,6,7-tetrahydropyrazolo[3,4-b]thiazolo[4,5-d]azepin-2-amine] | < 100 nM |
| Cc1ccnc(CN2CCc3nc(Nc4ncc(F)cn4)sc3-c3cn[nH]c32)c1 [Compound 1-63] | < 100 nM |
| Fc1cnc(Nc2nc3c(s2)CCN(Cc2ncccc2Cl)c2[nH]ncc2-3)nc1 [Compound 1-64, 6-((3-Chloropyridin-2-yl)methyl)-N-(5-fluoropyrimidin-2-yl)-4,5,6,7-tetrahydropyrazolo[3,4-b]thiazolo[4,5-d]azepin-2-amine] | 100 to 1000 nM |
| Fc1cnc(Nc2nc3c(s2)CCN(CCc2ccccc2)c2[nH]ncc2-3)nc1 [Compound 1-65, N-(5-Fluoropyrimidin-2-yl)-6-phenethyl-4,5,6,7-tetrahydropyrazolo[3,4-b]thiazolo[4,5-d]azepin-2-amine] | 100 to 1000 nM |
| COCCN1CCc2sc(Nc3nc(C)ccc3F)nc2-c2cn[nH]c21 [Compound 1-66, N-(3-Fluoro-6-methylpyridin-2-yl)-6-(2-methoxyethyl)-4,5,6,7-tetrahydropyrazolo[3,4-b]thiazolo[4,5-d]azepin-2-amine] | 100 to 1000 nM |
| Fc1cnc(Nc2nc3c(s2)CCN(Cc2cccc(Cl)c2)c2[nH]ncc2-3)nc1 [Compound 1-67, 6-(3-Chlorobenzyl)-N-(5-fluoropyrimidin-2-yl)-4,5,6,7-tetrahydropyrazolo[3,4-b]thiazolo[4,5-d]azepin-2-amine] | 100 to 1000 nM |
| N#Cc1ccc(CN2CCc3sc(Nc4ncc(F)cn4)nc3-c3cn[nH]c32)cc1 [Compound 1-68, 4-((2-(5-Fluoropyrimidin-2-ylamino)-4,5-dihydropyrazolo[3,4-b]thiazolo[4,5-d]azepin-6(7H)-yl)methyl)benzonitrile] | < 100 nM |
| Fc1cnc(Nc2nc3c(s2)CCN(Cc2ccc(C(F)(F)F)cc2)c2[nH]ncc2-3)nc1 [Compound 1-69, N-(5-Fluoropyrimidin-2-yl)-6-(4-(trifluoromethyl)benzyl)-4,5,6,7-tetrahydropyrazolo[3,4-b]thiazolo[4,5-d]azepin-2-amine] | 100 to 1000 nM |
